This is an account of results in paper PMC2851491 (The Journal of infectious diseases, 2010).

Like-named read-outs stand apart in the source and are kept apart here.

Test [1] has as its system A/Wisconsin/67/2005 (H3N2). Description: microbe, parasite or virus in culture. The format is cell-based, influenza A/H3N2 virus.
The test system of test [2] is Day 0 wild-type isolate (A/Bethesda/NIH12-0/2008). Description: microbe, parasite or virus in culture. The format is cell-based, influenza A/H3N2 virus.
The subject of test [3] is Day 8 isolate (deletion in NA of AA 245–248). It counts as cell-based, influenza A/H3N2 virus. The following applies: read-out: High Throughput Assay EC50 (95% CI).
Test [4] relates to Day 0 wild-type isolate (A/Bethesda/NIH12-0/2008). The format is cell-based, influenza A/H3N2 virus. To be noted: read-out: Plaque Reduction Assay IC50 (95% CI). In general terms: In a plaque reduction assay, fewer plaques than in the control indicate reduced infectivity or spread.
Test [5] relates to Day 8 isolate (deletion in NA of AA 245–248). The format is cell-based, influenza A/H3N2 virus. To be noted: for IC50: read-out: Plaque Reduction Assay IC50 (95% CI).
The target of test [6] is NA of Day 0 wild-type isolate (A/Bethesda/NIH12-0/2008) (Influenza A virus, UniProt D3XBZ2). The format is biochemical, influenza A/H3N2 virus. To be noted: read-out: NA-inhibition Assay IC50 (95% CI).
For test [7], the target named is NA of Day 8 isolate (deletion in NA of AA 245–248) (Influenza A virus, UniProt D3XBZ2, DEL245-248). Description: biochemical. It counts as biochemical, influenza A/H3N2 virus.
Setting [8] is: read-out: High Throughput Assay EC50 (95% CI).

As usually defined, the EC50 is the concentration at which the effect is half-maximal. As to `NC12CC3CC(CC(C3)C1)C2` [Amantadine, amantadine], the EC50 in test [1] (Influenza A virus, H3N2, read-out: High Throughput Assay EC50) was over 200000 nM; in test [2] (Influenza A virus, in Homo sapiens, 0 h, read-out: High Throughput Assay EC50), over 200000 nM.

One may read the IC50 as the concentration needed to halve the response being measured. For the compound `CCOC(=O)C1=C[C@@H](OC(CC)CC)[C@H](NC(C)=O)[C@@H](N)C1` [Oseltamivir, oseltamivir], the values for the concentration giving a half-maximal response (EC50) in test [1] (setting [8]), in test [2] (setting [8]) and in test [3] were 0.37 nM, 0.21 nM and 443 nM, respectively. Moreover, the IC50 in test [4] is 0.38 nM; in test [5], 49.7 nM.

Turning to `CC(=O)N[C@H]1[C@H]([C@H](O)[C@H](O)CO)OC(C(=O)O)=C[C@@H]1N=C(N)N` [Zanamivir, zanamivir], the concentration for half-maximal inhibition (IC50) in test [6] was 4 nM; in test [7], 12.7 nM; in test [4], 15.6 nM; in test [5], 224 nM. In test [7], the “fold increase in IC50, NA activity assay” value came out at 3 fold. For the same compound, the “fold increase in IC50 / IC50/EC50, summary over drug sensitivity assays” value in test [7] lay within 3 to 7 fold. For the same compound, the EC50 stood at 6.16 nM in test [1] (setting [8]), 18.9 nM in test [2] (setting [8]) and 131 nM in test [3]. Further, the “fold increase in IC50, plaque reduction assay” value in test [5] is reported as 14 fold.
